Source: publication PMC4769319, “Cohesin Releases DNA through Asymmetric ATPase-Driven Ring Opening” (Molecular Cell, 2016)

Biological target: T1, Smc1/Smc3 heterodimer with Scc1-C (cohesin) (Saccharomyces cerevisiae, UniProt P32908+P47037, P47037:K38I, form not given)
T1 construct: N-terminal tags; Sf9 insect cells; fluorescently labelled for MST; with Sister chromatid cohesion protein 1
T1 sequence (P32908 1-1225): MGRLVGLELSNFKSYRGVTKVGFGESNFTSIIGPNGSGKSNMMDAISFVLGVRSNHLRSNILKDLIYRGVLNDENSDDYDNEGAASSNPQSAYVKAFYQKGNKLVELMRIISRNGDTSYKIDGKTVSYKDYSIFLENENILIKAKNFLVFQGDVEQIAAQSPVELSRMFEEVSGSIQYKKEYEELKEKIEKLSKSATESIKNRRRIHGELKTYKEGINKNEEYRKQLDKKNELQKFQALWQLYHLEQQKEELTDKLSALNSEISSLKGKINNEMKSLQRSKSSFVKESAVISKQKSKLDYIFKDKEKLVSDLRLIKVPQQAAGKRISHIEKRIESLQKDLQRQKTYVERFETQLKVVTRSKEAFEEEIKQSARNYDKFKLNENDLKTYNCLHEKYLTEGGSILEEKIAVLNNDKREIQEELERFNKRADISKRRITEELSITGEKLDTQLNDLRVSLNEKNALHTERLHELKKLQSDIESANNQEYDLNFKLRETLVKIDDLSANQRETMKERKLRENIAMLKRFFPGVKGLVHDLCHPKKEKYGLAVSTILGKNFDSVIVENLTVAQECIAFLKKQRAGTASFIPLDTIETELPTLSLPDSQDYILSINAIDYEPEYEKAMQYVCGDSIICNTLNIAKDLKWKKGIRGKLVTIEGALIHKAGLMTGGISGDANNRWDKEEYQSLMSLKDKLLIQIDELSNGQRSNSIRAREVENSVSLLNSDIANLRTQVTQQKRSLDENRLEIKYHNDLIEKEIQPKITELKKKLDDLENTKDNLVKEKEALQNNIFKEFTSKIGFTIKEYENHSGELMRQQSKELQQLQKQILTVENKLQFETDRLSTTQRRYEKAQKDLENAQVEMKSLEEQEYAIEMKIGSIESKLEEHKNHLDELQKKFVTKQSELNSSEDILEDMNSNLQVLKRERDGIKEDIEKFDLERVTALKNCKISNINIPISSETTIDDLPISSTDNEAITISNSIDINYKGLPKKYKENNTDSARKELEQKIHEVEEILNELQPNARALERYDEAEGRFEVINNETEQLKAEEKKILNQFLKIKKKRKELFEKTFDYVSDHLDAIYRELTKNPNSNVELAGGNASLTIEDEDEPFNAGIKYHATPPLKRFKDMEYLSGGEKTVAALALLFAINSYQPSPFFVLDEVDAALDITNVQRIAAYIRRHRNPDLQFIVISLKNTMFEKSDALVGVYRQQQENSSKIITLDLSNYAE
T1 sequence (P47037 1-1230 K38I): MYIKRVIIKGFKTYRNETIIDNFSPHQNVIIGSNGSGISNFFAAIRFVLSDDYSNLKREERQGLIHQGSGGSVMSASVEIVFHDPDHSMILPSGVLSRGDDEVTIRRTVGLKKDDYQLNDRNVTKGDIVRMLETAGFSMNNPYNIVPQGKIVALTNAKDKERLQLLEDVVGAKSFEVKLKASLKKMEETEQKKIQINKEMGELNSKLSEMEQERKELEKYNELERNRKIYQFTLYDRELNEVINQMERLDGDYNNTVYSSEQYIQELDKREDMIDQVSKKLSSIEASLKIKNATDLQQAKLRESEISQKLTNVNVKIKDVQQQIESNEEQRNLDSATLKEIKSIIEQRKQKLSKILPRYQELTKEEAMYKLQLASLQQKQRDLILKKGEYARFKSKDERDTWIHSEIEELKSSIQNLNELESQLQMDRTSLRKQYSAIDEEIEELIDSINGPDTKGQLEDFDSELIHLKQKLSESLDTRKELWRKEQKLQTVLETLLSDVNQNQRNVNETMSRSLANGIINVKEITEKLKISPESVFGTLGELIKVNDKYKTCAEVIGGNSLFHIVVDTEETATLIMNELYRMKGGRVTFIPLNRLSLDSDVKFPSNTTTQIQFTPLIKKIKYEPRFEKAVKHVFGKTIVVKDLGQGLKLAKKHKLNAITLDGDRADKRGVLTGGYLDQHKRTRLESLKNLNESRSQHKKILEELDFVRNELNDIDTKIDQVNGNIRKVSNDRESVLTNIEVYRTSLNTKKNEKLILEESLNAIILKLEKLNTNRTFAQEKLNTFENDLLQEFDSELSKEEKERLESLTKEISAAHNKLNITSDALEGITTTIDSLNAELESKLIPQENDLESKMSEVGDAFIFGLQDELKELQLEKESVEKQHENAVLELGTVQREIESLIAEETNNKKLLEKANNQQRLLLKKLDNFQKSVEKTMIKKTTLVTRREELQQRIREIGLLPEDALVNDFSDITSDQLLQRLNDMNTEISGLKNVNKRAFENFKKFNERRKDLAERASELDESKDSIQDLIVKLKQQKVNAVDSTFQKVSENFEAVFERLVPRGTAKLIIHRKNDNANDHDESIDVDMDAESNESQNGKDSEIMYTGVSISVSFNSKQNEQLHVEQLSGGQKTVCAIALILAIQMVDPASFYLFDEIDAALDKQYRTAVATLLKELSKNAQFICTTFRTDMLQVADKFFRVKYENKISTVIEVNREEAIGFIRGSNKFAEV
T1 sequence (Q12158 1-566 partner): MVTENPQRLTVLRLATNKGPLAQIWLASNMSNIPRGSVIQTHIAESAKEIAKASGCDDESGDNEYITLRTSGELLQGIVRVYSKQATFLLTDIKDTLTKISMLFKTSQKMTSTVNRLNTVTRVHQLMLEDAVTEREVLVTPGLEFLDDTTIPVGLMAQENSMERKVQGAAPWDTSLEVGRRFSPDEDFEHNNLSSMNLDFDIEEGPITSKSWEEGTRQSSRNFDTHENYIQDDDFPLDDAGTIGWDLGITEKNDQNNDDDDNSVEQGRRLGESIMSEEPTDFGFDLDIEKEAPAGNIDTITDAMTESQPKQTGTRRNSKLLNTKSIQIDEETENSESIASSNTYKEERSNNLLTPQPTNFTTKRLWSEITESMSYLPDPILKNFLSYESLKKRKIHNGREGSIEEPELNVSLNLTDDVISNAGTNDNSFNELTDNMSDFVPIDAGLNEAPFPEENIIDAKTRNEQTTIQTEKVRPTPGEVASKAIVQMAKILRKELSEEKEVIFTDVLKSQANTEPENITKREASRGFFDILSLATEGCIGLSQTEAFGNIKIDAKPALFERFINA
Test: microscale thermophoresis
Conditions: fluorescently labelled protein; Smc1 co-purified with Scc1-C, plus Smc3; binding abrogated

SMILES: Nc1ncnc2c1ncn2[C@@H]1O[C@H](COP(=O)(O)OP(=O)(O)O)[C@@H](O)[C@H]1O [ADP]
- microscale thermophoresis: each of the Walker A mutations efficiently abrogated binding to ATP and ADP

SMILES: Nc1ncnc2c1ncn2[C@@H]1O[C@H](COP(=O)(O)OP(=O)(O)OP(=O)(O)O)[C@@H](O)[C@H]1O [ATP]
- microscale thermophoresis: each of the Walker A mutations efficiently abrogated binding to ATP and ADP
